We go through 9 compounds from publication PMC8957230 (ADMET & DMPK, 2019).

The conditions of data set [1]: cited from earlier work.
The nature of data set [2]: Ketoconazole solubility by pH adjustment with HCl (pH-solubility profile). The format is physicochemical. The conditions noted are these: 25 °C. Here is the method:
Multiple vials were prepared using different concentration of HCl solutions (0.001M to 1M) so that different pH values could be attained, and, when needed, more amount of free base was added to maintain excess solid in the vials. […] Additional HCl solution and excess ketoconazole were added to the suspension in vial and shaken for another pH point, and the process was repeated until enough points on the pH scale were obtained. More than one suspension in different vials were used to generate a complete profile.

Data set [3] can be described thus: Solubility in buffered/non-buffered media. Here is the method: Cocrystal solubilities were determined at pH 1 solution (0.1 M HCl), pH 2 HCl buffer), pH 5 acetate buffer and pH 8 phosphate buffer. Buffers were prepared according to the United States Pharmacopeia (USP) procedures. […] Aliquots were filtered by 0.45-micron PVDF filter and analyzed by HPLC. The solid phase was analyzed by Raman spectroscopy.

A short description of data set [4]: Ketoconazole solubility with fumaric/succinic acid and 1:1 physical mixtures with coformers. The format is physicochemical. The conditions noted are these: 1:1 ketoconazole-fumaric acid mixture, 25 °C.
Experimental: A series of solutions with different concentrations of acids were prepared and 3 mL quantities of these solutions were distributed in separate glass vials. […] Aliquots of suspensions (0.5-0.7 mL each) were, however, withdrawn from each vial after 4, 24 and 96 h of shaking for analysis of drug concentration by HPLC according to the method described earlier. For the analysis of solid phase, contents of the vials were transferred to 3-mL Eppendorf tubes and centrifuged using Beckman GS 6R centrifuge at 2000 RPM for 5 min. After centrifugation, the supernatants were removed and solid contents were dried in a vacuum oven at 50 °C, which were then analyzed by DSC and Raman spectroscopy.
In this study, different quantities of the mixtures (12 mg to 350 mg) were added to different 20 mL glass vials, and then 5 mL of water was added to each vial. Thus, the volume of water in each vial remained the same and only the amount of material added differed. […] Samples were withdrawn from each vial at 4, 24 and 96 h to measure drug concentration, as described earlier. The solid phase of the vials was analyzed using Raman spectroscopy to determine the identity of equilibrium species. From some of the vials, solid contents were separated by centrifugation, dried in a vacuum oven, and then analyzed by DSC.
The nature of data set [5]: Intrinsic dissolution rate. The class given is physicochemical. The arrangement: key: -: Extremely low dissolution rate (practically zero) that could not be calculated with accuracy. Conditions: 25 °C. The method, then: For each determination, 100 mg of powder was compressed into pellet by Carver press at 1 ton pressure for 10 seconds. The apparatus with the exposed surface of the material was immersed into 250 mL of dissolution medium and rotated at 200 RPM. pH of dissolution media during the intrinsic dissolution testing were maintained by two different methods: in one case, unbuffered media were used where either 0.1 M HCl or 0.1 M NaOH were added to keep pH constant at 3, 4 or 5 (±0.15), and in the second case, pH 3, 4 and 5 phthalate buffers prepared according to the USP were used as dissolution media to keep pH constant. Two mL of aliquot was withdrawn at each of 5, 15, 30, 60, 90 and 120 min time points, filtered by 0.45-micron PVDF filter, and analyzed by HPLC for drug concentration.

The conditions of data set [6]: average of two.
Experimental: Essentially, in the present investigation, about 0.5 mL of buffer was added to 200 mg of powder in a small vial and mixed by vortexing, and then pH was recorded when an equilibrium was reached after 5-10 min of mixing.
The conditions of data set [7]: excess cocrystal in water, 25 °C.
For data set [8] the following is noted: cited from earlier work. The source holds these as a separate data set.
On the set-up of data set [9]: method as in earlier work. The conditions noted are these: 5 mM sodium taurocholate and […] lecithin in pH 6.8 phosphate buffer; cited from earlier work.
[10] abbreviates: initial pH 1.1 (0.1 M HCl), 25 °C.
Setting [11] is: initial pH 2.1 HCl/KCl buffer, 25 °C.
Where [12] appears, read: initial pH 5.0 acetate buffer, 25 °C.
Setting [13] is: initial pH 7.9 phosphate buffer, 25 °C.
The mark [14] stands for this setting: buffers, pH 3 phthalate, 0.5 cm^2.
[15] abbreviates: buffers, pH 4 phthalate, 0.5 cm^2.
Setting [16] is: unbuffered media, pH 3 kept constant with HCl or NaOH, 0.5 cm^2.
The mark [17] stands for this setting: unbuffered media, pH 4 kept constant with HCl or NaOH, 0.5 cm^2.
[18] abbreviates: pH 3 phthalate buffer, initial (bulk) pH 2.93.
[19] abbreviates: pH 5 neutralized phthalate buffer, initial (bulk) pH 4.97.
[20] abbreviates: pH 7 phosphate buffer, initial (bulk) pH 6.97.

≈ marks a conversion by molar mass, not a printed value. Read-outs that look alike come from different tables or passages of the source. Marks after values point to notes of the source that are not given here.

In the case of `Nc1nnc(-c2cccc(Cl)c2Cl)c(N)n1` [lamotrigine], the Solubility in water in data set [1] is 154 µg/mL; in [1] (pH of ~5.5, cocrystals at 1:1 ratios) it was 280 µg/mL. Moreover, the “pH of the aqueous slurries during the determination of solubility” value in [1] was 6.8.

As a reminder, the solubility is how much of the substance goes into solution per volume. Regarding `CC(=O)N1CCN(c2ccc(OCC3COC(Cn4ccnc4)(c4ccc(Cl)cc4Cl)O3)cc2)CC1` (stereo not shown) [ketoconazole], the solubility stood at 5429 µg/mL (≈ 10200 µM) in data set [2] (pH of suspension 3.35, pH lowered using HCl, listed as ketoconazole base); 148000 µg/mL (≈ 279000 µM) in data set [2] (suspension in distilled water, pH adjusted with HCl, pH 3.1, aqueous buffer, thermodynamic from solid, pH 3.1, pH adjusted with HCl, read-out: Highest solubility measured); 148000 µg/mL (≈ 279000 µM) in data set [2] (suspension in distilled water, pH adjusted with HCl, pH 3.1, aqueous buffer, thermodynamic from solid, pH of suspension 3.1, pH lowered using HCl, read-out: Solubility); 5460 µg/mL (≈ 10300 µM) in data set [2] (suspension in distilled water, pH adjusted with HCl, pH 3.35, aqueous buffer, thermodynamic from solid, pH of suspension 3.35, pH lowered using HCl, read-out: Solubility); 7100 µg/mL (≈ 13400 µM) in data set [2] (suspension in distilled water, pH adjusted with HCl, pH 3.37, aqueous buffer, thermodynamic from solid, pH of suspension 3.37, pH lowered using HCl, read-out: Solubility); 3420 µg/mL (≈ 6440 µM) in data set [2] (suspension in distilled water, pH adjusted with HCl, pH 3.58, aqueous buffer, thermodynamic from solid, pH of suspension 3.58, pH lowered using HCl, read-out: Solubility). For the same compound, the solubility in data set [2] (suspension in distilled water, pH adjusted with HCl, pH 3.81, aqueous buffer, thermodynamic from solid, pH of suspension 3.81, pH lowered using HCl, read-out: Solubility) stood at 1930 µg/mL (≈ 3630 µM); in data set [2] (suspension in distilled water, pH adjusted with HCl, pH 4.28, aqueous buffer, thermodynamic from solid, pH of suspension 4.28, pH lowered using HCl, read-out: Solubility) it was 729 µg/mL (≈ 1370 µM); in [2] (suspension in distilled water, pH adjusted with HCl, pH 4.48, aqueous buffer, thermodynamic from solid, pH of suspension 4.48, pH lowered using HCl, read-out: Solubility) it was 345 µg/mL (≈ 649 µM); in [2] (suspension in distilled water, pH adjusted with HCl, pH 4.56, aqueous buffer, thermodynamic from solid, pH of suspension 4.56, pH lowered using HCl, read-out: Solubility), 354 µg/mL (≈ 666 µM); in data set [2] (suspension in distilled water, pH adjusted with HCl, pH 4.95, aqueous buffer, thermodynamic from solid, pH of suspension 4.95, pH lowered using HCl, read-out: Solubility) it was 178 µg/mL (≈ 335 µM); in data set [2] (suspension in distilled water, pH adjusted with HCl, pH 4.99, aqueous buffer, thermodynamic from solid, pH of suspension 4.99, pH lowered using HCl, read-out: Solubility), 175 µg/mL (≈ 329 µM). The solubility in data set [2] (suspension in distilled water, pH adjusted with HCl, pH 7.12, aqueous buffer, thermodynamic from solid, pH of suspension 7.12, pH lowered using HCl, read-out: Solubility) turned out to be 5 µg/mL (≈ 9.41 µM); in data set [2] (suspension in distilled water, pH adjusted with HCl, pH 7.23, aqueous buffer, thermodynamic from solid, pH of suspension 7.23, pH lowered using HCl, read-out: Solubility) it was 4 µg/mL (≈ 7.53 µM); in [2] (suspension in distilled water, pH adjusted with HCl, pH 3.67, pH of suspension 3.67, pH lowered using HCl, read-out: Solubility), 3030 µg/mL (≈ 5700 µM); in data set [2] (suspension in distilled water, pH adjusted with HCl, pH 3.71, pH of suspension 3.71, pH lowered using HCl, read-out: Solubility), 2780 µg/mL (≈ 5230 µM); in data set [2] (suspension in distilled water, pH adjusted with HCl, pH 7.27, pH of suspension 7.27, pH lowered using HCl, read-out: Solubility), 3 µg/mL (≈ 5.65 µM); in [2] (suspension in distilled water, pH adjusted with HCl, pH 7.72, pH of suspension 7.72, pH lowered using HCl, read-out: Solubility), 2 µg/mL (≈ 3.76 µM). Moreover, the solubility was 3 µg/mL (≈ 5.65 µM) in [2] (suspension in distilled water, pH adjusted with HCl, pH 7.92, pH of suspension 7.92, pH lowered using HCl, read-out: Solubility); 2 µg/mL (≈ 3.76 µM) in data set [2] (suspension in distilled water, pH adjusted with HCl, pH 8.49, pH of suspension 8.49, pH lowered using HCl, read-out: Solubility); roughly 2 µg/mL (≈ 3.76 µM) in data set [2] (suspension in distilled water, pH adjusted with HCl, pH higher than 8, read-out: Intrinsic solubility of the free base (nonprotonated species)); roughly 27000 µg/mL (≈ 50800 µM) in [3] (0.1 M HCl, 25 °C, pH 1.1, simulated gastric fluid, thermodynamic from solid); roughly 3400 µg/mL (≈ 6400 µM) in data set [3] (HCl/KCl buffer, 25 °C, pH 2.1, simulated gastric fluid, thermodynamic from solid); 130 µg/mL (≈ 245 µM) in data set [3] (acetate buffer, 25 °C, pH 5, aqueous buffer, thermodynamic from solid). The same compound gave a solubility in data set [3] (phosphate buffer, pH 7.9) of 1 µg/mL (≈ 1.88 µM). Besides, the pH after equilibration was ~2.9 ^* in [3] (setting [10]), ~3.6 ^* in data set [3] (setting [11]), 4.95 in data set [3] (setting [12]) and 7.82±0.01 in data set [3] (setting [13]). Also, in data set [4] (equilibrated 96 h, pH~3.7), the solubility at 96 h was roughly 3000 µg/mL (≈ 5650 µM). Also, the solubility at 4 h in data set [4] (water, thermodynamic from solid, equilibrated 4 h, no conversion to cocrystal) was roughly 7000 µg/mL (≈ 13200 µM). The Dissolution rate constant in data set [5] (setting [14]) is 108 μg.min^-1.cm^-2; in data set [5] (setting [15]), 45 μg.min^-1.cm^-2; in [5] (buffers, pH 5 phthalate), “- ^**”; in [5] (setting [16]), 106 μg.min^-1.cm^-2; in data set [5] (setting [17]), 16 μg.min^-1.cm^-2; in data set [5] (unbuffered media, pH 5 kept constant with HCl or NaOH), “- ^**”. The “pH h=0 (slurry pH)” value in [6] (setting [18]) was 4.17; in data set [6] (setting [19]), 5.00; in data set [6] (setting [20]), 7.05.

On to `CC(C)(C)C(=O)OCOP(=O)(COCCn1cnc2c(N)ncnc21)OCOC(=O)C(C)(C)C` [adefovir dipivoxil], for which, in data set [1], the Solubility in water is 790 µM and the “pH of saturated solutions” value is on record as 6.7.

Turning to ketoconazole-fumaric acid cocrystal, the pH after equilibration in data set [3] (setting [10]) stood at 2.03± 0.01; in [3] (setting [11]), 2.89 ± 0.02; in [3] (setting [12]), 4.31 ± 0.02; in [3] (setting [13]), 7.17 ± 0.01. Besides, the solubility in data set [3] (initial pH 1.1 (0.1 M HCl), 25 °C, average of three determinations) came to 21540 ± 550 µg/mL; in data set [3] (initial pH 2.1 HCl/KCl buffer, 25 °C, average of three determinations), 3390 ± 20 µg/mL; in [3] (initial pH 5.0 acetate buffer, 25 °C, average of three determinations), 600 ± 20 µg/mL; in data set [3] (initial pH 7.9 phosphate buffer, 25 °C, average of three determinations), 3 ± 2 µg/mL. The Dissolution rate constant in data set [5] (setting [14]) is on record as 108 μg.min^-1.cm^-2; in data set [5] (setting [15]), 71 μg.min^-1.cm^-2; in data set [5] (buffers, pH 5 phthalate, 0.5 cm^2) it was 51 μg.min^-1.cm^-2; in data set [5] (setting [16]), 164 μg.min^-1.cm^-2; in [5] (setting [17]) it was 124 μg.min^-1.cm^-2; in data set [5] (unbuffered media, pH 5 kept constant with HCl or NaOH, 0.5 cm^2), 93 μg.min^-1.cm^-2. The “pH of saturated solution in water” value in [7] stood at 4.1. For the same compound, the “Solubility in water (as ketoconazole equivalents)” value in [7] (saturated solution pH 4.1 (fumaric) / 4.2 (succinic)) was 2600 µg/mL. Besides, the “pH h=0 (slurry pH)” value in data set [6] (setting [18]) turned out to be 3.13; in data set [6] (pH 4 phthalate buffer, initial (bulk) pH 3.96), 4.08; in data set [6] (setting [19]) it was 4.23; in data set [6] (setting [20]), 4.53.

Take `O=C(O)/C=C/C(=O)O` [fumaric acid]: in data set [8], the “pKa, first ionization” value is 2.74 and the “pKa, second ionization” value is on record as 4.17.

With `CCOc1ccccc1C(N)=O` [ethenzamide], the Solubility in water in data set [1] was 0.80 to 0.85 µg/mL.

The term pKa denotes the negative logarithm of the acid dissociation constant. Take `CC(=O)Nc1nc2c(Oc3cc(-c4ccc(C(F)(F)F)cc4)ncn3)cccc2s1` [AMG 517]: in [8], the pKa is 0.68. Besides, the “Solubility in FaSIF” value in data set [9] is 5 µg/mL (≈ 11.6 µM).

With `O=C(O)CCC(=O)O` [succinic acid], in [8], the “pKa, first ionization” value is 3.93 and the “pKa, second ionization” value is 5.30.

Regarding `CC(=O)N1CCN(c2ccc(OC[C@H]3CO[C@](Cn4ccnc4)(c4ccc(Cl)cc4Cl)O3)cc2)CC1.Cl.Cl` [ketoconazole dihydrochloride salt, ketoconazole dihydrochloride], the “Solubility (in words)” value in [1] is reported as “very high solubility”.
